This is an account of results in article PMC3017119, “Structural Basis for the Recognition of Cellular mRNA Export Factor REF by Herpes Viral Proteins HSV-1 ICP27 and HVS ORF57” (PLoS Pathogens, 2011).

Where no end group is shown, it is not given here.

The target of the first experiment is T1, REF^54–155 (REF2-I RRM domain) (Mus musculus, UniProt Q9JJW6).
T1 construct: made in house
In words: NMR chemical shift titration of 15N-REF^54–155 with viral peptides (dissociation constants). Type of experiment: binding, murine.
Settings: not given
As for the experimental part:
A separate titration of each peptide was carried out under the same sample conditions. Increasing amounts of peptide were added to a ^15N-REF^54–155 sample, achieving binding saturation whenever possible. Throughout these titrations amide chemical shift changes were monitored to assess the relative binding affinity of these peptides for REF and simultaneously map their binding sites. Estimates of dissociation constants were obtained for each peptide, and for the longer viral adaptor fragments (Table 2). […] A reduction in affinity was more pronounced in the L108A mutant, with the R107A mutation virtually abolishing the binding. […] This agrees with the NMR mapping data that a longer sequence from ORF57 (residues 103–120) is involved in REF binding. […] These latter two viral adaptors lack the signature Trp residue, and additionally in KSHV-ORF57 the Arg within the triad is replaced by Lys. As a further control, we also checked if binding of the viral peptides is specific to the RRM domain of REF, or if it can occur with RRMs of other proteins as well. The proteins SF2 [37] and 9G8 [38] bind TAP/p15 and have roles in splicing and mRNA export somewhat similar to that of REF/Aly. They also contain an RRM domain and are therefore structurally homologous to REF/Aly. To test if the same ICP27 motif could interact with these RRM domains, we added a 5-fold excess of WT ICP27^103–112 peptide to ^15N-labelled SF2 [37] and 9G8 [38]. […] These experiments confirmed that the recognition of the REF RRM domain by viral adaptor proteins is highly specific, and the isolated peptides ICP27^103–112, ICP27^103–110 and ORF57^103–120 are able to bind REF as efficiently as longer fragments of these viral proteins.
All experiments were carried out at 30°C on Bruker DRX600, DRX700 and Varian Inova 800 MHz spectrometers equipped with cryoprobes. The weighted chemical shift changes of amide signals δCS caused by complex formation were measured as [drawing 1] , where Δδ^H and Δδ^N were changes in proton and nitrogen chemical shifts, respectively. Standard triple-resonance experiments were used to assign spectra of ICP27^103–138, ORF57^8–120 and REF^54–155 in their free and bound states. Additionally, carbon-detection experiments (CON, CaCO, CbCaCO, CbCaCO(N), CbCaNCO) were used as an aid to the ORF57 assignment. Spectra were processed using NMRpipe and Topspin 2.1 (Bruker) and analysed using Sparky (University of California). Distance restraints obtained from 3D ^15N- and ^13C edited NOESY-HSQC experiments (τm 120 ms) and dihedral restraints from TALOS [51] were used in structure calculations by CYANA [52]. Additionally, intermolecular contacts were unambiguously identified using ^13C edited, ^12C-filtered NOESY-HSQC (τm 150 ms) spectra acquired on Varian Inova 800 MHz spectrometer. In this experiment only NOE crosspeaks between ^1H-^13C moieties of ^13C,^15N-labelled REF and ^1H(^12C) of unlabelled ICP27 peptide were observed, [54]. A final ensemble contained 20 structures with lowest target function values. Images were generated using Pymol (DeLano Scientific). For the REF - ICP27 complex, structure coordinates and experimental constraints have been deposited into the Protein Data Bank and chemical shifts in the BioMagResBank (access numbers 2kt5 and bmr16683 respectively). Other chemical shift assignments deposited in the BioMagResBank are: free ICP27^103–138 bmr16696, free REF^54–155 bmr16697, and ORF57^8–120 bmr16698 (both free and bound to REF^54–155).
Unlabelled synthetic peptides were obtained from Peptide Protein Research Ltd (UK). The synthetic peptide sequences used were from Varicella-zoster virus ORF4^108–119 (AAY57694), Kaposi's sarcoma-associated herpesvirus ORF57^100–110 (YP_001129410), Herpesvirus Saimiri ORF57^103–120 & 105–115 (CAC84353), Herpes simplex virus 1 ICP27^103–110 & 103–112 (AAF43147). […]
KTSWADRVREA [HVS ORF57^105–115]: the Kd was above 1000 µM.
For the substance “NRYGKKIKFGT [KSHV ORF57^100–110, reference compound]”, the Kd was above 100000 µM.
Consider “SCKTSAADRVREAAAQRR [HVS ORF57^103–120 W108A]”, for which the Kd is above 7500 µM.
In the case of “SCKTSWADAVREAAAQRR [HVS ORF57^103–120 R111A]”, the Kd stood at 254 ± 50 µM.
Turning to “SCKTSWADRAREAAAQRR [HVS ORF57^103–120 V112A]”, the Kd was 156 ± 32 µM.
With SVASRLGARR [ICP27^103–112 W105A], the Kd was 550 ± 210 µM.
On the same count and under the same terms, for SVWSALGARR [ICP27^103–112 R107A] the value was above 10000 µM.
For the substance SVWSRAGARR [ICP27^103–112 L108A], the Kd is above 5000 µM.
Turning to TGYARIERGHRR [VZV ORF4^108–119], the Kd was above 1000 µM.

Still in this experiment, the particulars now being: chemical shift changes in 1H-15N correlation spectra of 100 µM 15N-REF^54–155 versus increasing peptide concentration, fitted to standard equation; 30°C; NMR buffer 20 mM phosphate, 50 mM NaCl, 50 mM L-Arg/L-Glu/β-mercaptoethanol, 10 mM EDTA, pH 6.2; read-out: K D.
As to “…SCKTSWADRVREAAAQRR [HVS ORF57^8–120, recombinant fragment aa 8–120 of Herpesvirus saimiri ORF57, with T7 and poly-His tags]”, the Kd turned out to be 78 ± 12 µM.

The next experiment relates to GST-REF2-I. In words: GST-REF2-I pull down of 35S-radiolabelled ICP27 fragments. The format is binding, murine. Particulars: 35S-radiolabelled protein from rabbit reticulocytes, glutathione beads, RB100 buffer pH 7.5, 10 µg/ml RNAse A; SDS-PAGE, PhosphoImage. An excerpt: To confirm the position of REF-binding domains within ICP27 and ORF57 and to minimise the size of constructs for more detailed NMR mapping, a series of fragments derived from HSV-1 ICP27 were screened for binding to GST-REF2-I using pull down assays (Fig. 1). […] The REF-binding fragment of ORF57 aa 8–120 identified previously similarly interacted with the same fragments of REF (Fig. 1D).
Figure 1 Identification of regions for the interactions between REF and ICP27/ORF57. (A) Subdivision of ICP27, ORF57 and REF2-I in fragments. […] (C) Fusion of the ICP27^103–138 peptide to GST allows a specific pull down of REF, REF^1–155 (NM) and REF^54–155 (Δ53) and a very weak pull down of the REF^1–70 (N); no interaction is detected with the control Ras protein. (D) Same pull down assay as panel C but using GST fusion of ORF57 aa 8–120 in place of ICP27.
GST or GST protein fusions were first immobilised on 30 µl slurry glutathione-coated beads (GE Healthcare) before 8 µl ^35S-radiolabelled proteins synthesised in rabbit reticulocytes (Promega) were added to the binding reactions in RB100 buffer (25 mM HEPES pH 7.5/100 mM KOAc/10 mM MgCl2/1 mM DTT/0.05% Triton X-100/10% glycerol) in presence of 10 µg/ml RNAse A. Washed and eluted protein complexes were resolved on 15% SDS-PAGE stained with Coomassie blue and analysed by PhosphoImage. […]
On to “ICP27^1–103: fragment aa 1–103 of HSV-1 ICP27”, for which the “Binding to GST-REF2-I in pull down” value was “no binding”.
For “ICP27^139–512: fragment aa 139–512 of HSV-1 ICP27”, the “Binding to GST-REF2-I in pull down” value is “no binding”.

Another experiment relates to REF^156–218 (REF2-I C-terminal domain). In words: NMR 1H-15N correlation spectra of 15N-labelled REF^156–218 with added viral protein constructs. Type of experiment: binding, murine. The conditions noted are these: 2-fold excess of viral construct; 15N-HSQC.
As to “…SCKTSWADRVREAAAQRR [HVS ORF57^8–120, recombinant fragment aa 8–120 of Herpesvirus saimiri ORF57, with T7 and poly-His tags]”, the “Changes in 1H-15N correlation spectra of 15N-REF^156–218 upon addition” value was “No significant changes”.
